Patent US8524702B2, “Substituted benzoazepines as toll-like receptor modulators” (VentiRx Pharmaceuticals, Inc., priority 2009, dated 2013)
Structures can show the parent of a compound that is named as a salt.

Key:
TLR8 = molecular target: T1, TLR8 (Homo sapiens, UniProt Q9NR97); assay: PBMC assay for TLR8 (TNFα in supernatants by ELISA); assay type: cell-based; design: Peripheral blood mononuclear cells (PBMCs) from human blood were isolated; endogenous in cells; host or cells: human PBMCs; settings: human PBMCs incubated with compound overnight, MC50 = concentration at which 50% of the maximum induction is seen
T1 sequence (Q9NR97 27-1041): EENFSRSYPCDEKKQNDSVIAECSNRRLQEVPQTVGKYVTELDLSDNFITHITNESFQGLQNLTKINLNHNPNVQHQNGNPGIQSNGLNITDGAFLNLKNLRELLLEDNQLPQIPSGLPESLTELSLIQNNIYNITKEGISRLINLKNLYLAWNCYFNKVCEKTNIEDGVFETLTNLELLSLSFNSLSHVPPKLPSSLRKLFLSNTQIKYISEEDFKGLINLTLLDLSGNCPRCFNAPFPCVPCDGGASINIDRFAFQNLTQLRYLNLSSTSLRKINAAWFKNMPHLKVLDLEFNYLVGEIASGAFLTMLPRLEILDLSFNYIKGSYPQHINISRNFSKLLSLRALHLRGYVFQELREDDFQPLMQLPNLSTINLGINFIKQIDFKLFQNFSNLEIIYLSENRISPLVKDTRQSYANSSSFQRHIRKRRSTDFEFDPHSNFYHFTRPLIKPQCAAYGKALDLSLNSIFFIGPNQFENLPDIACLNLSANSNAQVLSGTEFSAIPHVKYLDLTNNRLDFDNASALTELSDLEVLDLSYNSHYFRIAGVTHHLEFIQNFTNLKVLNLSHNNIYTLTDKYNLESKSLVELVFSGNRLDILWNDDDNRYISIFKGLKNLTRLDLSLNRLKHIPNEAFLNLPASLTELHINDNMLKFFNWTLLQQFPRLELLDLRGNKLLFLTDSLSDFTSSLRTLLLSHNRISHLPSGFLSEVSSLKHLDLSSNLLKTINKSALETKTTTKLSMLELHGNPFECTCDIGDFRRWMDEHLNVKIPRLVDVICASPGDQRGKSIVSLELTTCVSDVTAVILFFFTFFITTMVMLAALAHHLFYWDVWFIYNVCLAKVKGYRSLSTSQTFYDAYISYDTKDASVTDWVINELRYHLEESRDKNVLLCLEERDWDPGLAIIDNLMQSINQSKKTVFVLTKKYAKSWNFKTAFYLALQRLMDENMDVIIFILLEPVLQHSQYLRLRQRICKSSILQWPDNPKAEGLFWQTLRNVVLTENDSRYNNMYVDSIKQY
Description: (§1) Peripheral blood mononuclear cells (PBMCs) from human blood were isolated using BD Vacutainer Cell Preparation Tubes with sodium citrate. Cells were incubated with compound overnight. TLR8 activity was assayed by measuring the amount of TNFα in supernatants by ELISA. TLR7 activity was assayed by measuring the amount of IFNα in supernatants by ELISA (R&D Systems). […] The results of this assay are shown below in Tables 2 and 3.
(§2) MC50 numbers are represented as factors of ten, for example, + indicates an MC50 value of ×10^4, or a value in the tens of thousands of nanomolar (nM range); ++ indicates an MC50 value of ×10^3, or a value in the thousands; +++ indicates an MC50 value of ×10^2, or a value in the hundreds; and ++++ indicates an MC50 value of ×10^1 or 10°, or a value in the tens or ones.

TLR7 = molecular target: T2, TLR7 (Homo sapiens, UniProt Q9NYK1); assay: PBMC assay for TLR7 (IFNα in supernatants by ELISA); assay type: cell-based; design: Peripheral blood mononuclear cells (PBMCs) from human blood were isolated; endogenous in cells; host or cells: human PBMCs; settings: human PBMCs incubated with compound overnight, MC50 = concentration at which 50% of the maximum induction is seen
T2 sequence (Q9NYK1 27-1049): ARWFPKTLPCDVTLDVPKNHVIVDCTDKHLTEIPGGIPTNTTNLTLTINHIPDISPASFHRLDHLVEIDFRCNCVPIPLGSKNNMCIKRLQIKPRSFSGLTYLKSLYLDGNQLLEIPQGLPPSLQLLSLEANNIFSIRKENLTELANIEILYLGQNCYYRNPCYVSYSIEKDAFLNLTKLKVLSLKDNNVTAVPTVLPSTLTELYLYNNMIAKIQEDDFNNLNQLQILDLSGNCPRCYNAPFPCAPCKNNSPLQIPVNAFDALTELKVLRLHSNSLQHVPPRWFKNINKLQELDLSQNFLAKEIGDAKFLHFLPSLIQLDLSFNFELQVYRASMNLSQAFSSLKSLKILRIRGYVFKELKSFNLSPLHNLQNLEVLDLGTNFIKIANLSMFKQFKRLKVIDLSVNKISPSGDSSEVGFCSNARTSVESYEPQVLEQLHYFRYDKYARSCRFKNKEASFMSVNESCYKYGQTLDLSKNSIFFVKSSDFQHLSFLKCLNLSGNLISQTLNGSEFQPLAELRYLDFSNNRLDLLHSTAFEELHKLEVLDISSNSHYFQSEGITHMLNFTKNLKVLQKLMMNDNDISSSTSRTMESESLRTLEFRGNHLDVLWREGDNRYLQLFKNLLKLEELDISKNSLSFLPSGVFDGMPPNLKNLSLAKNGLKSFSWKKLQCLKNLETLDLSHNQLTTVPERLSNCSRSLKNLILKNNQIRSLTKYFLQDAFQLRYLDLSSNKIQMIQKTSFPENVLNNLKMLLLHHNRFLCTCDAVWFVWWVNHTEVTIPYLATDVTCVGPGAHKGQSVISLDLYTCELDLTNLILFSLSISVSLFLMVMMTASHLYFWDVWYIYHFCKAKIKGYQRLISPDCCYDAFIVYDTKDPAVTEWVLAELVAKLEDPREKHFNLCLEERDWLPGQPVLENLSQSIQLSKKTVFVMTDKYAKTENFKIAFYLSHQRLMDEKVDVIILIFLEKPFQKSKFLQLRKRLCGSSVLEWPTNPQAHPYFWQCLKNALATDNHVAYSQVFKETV
Description: as §1, §2

EC50 (TLR8) [µM] | EC50 (TLR7) [µM] | SMILES
0.001 to 0.1 | 1 to 10 | CCCN(C[C@H](C)O)C(=O)C1=Cc2ccc(-c3ccc(C(=O)N4CCCC4)cc3)cc2N=C(N)C1 (single isomer, unassigned) [Compound 105]
1 to 10 | 1 to 10 | CC(C)CN(CC(C)C)C(=O)C1=Cc2ccc(-c3ccc(C(=O)N4CCCC4)cc3)cc2N=C(N)C1 [Compound 103, (1E,4E)-2-amino-N,N-diisobutyl-8-(4-(pyrrolidine-1-carbonyl)phenyl)-3H-benzo[b]azepine-4-carboxamide]
0.001 to 0.1 | 1 to 10 | CCCN(CC(C)O)C(=O)C1=Cc2ccc(-c3ccc(C(=O)N4CCCC4)cc3)cc2N=C(N)C1 (stereo not shown) [Compound 104, (1E,4E)-2-amino-N-(2-hydroxypropyl)-N-propyl-8-(4-(pyrrolidine-1-carbonyl)phenyl)-3H-benzo[b]azepine-4-carboxamide]
0.001 to 0.1 | 1 to 10 | CCCN(CCCO)C(=O)C1=Cc2ccc(-c3ccc(C(=O)N4CCCC4)cc3)cc2N=C(N)C1 [Compound 109, (1E,4E)-2-amino-N-(3-hydroxypropyl)-N-propyl-8-(4-(pyrrolidine-1-carbonyl)phenyl)-3H-benzo[b]azepine-4-carboxamide]
1 to 10 | 10 to 100 | NC1=Nc2cc(-c3ccc(C(=O)N4CCCC4)cc3)ccc2C=C(C(=O)N2C[C@@H](O)[C@H](O)C2)C1 [Compound 112, (4-((1E,4E)-2-amino-4-((3R,4R)-3,4-dihydroxypyrrolidine-1-carbonyl)-3H-benzo[b]azepin-8-yl)phenyl)(pyrrolidin-1-yl)methanone]
0.1 to 1 | 10 to 100 | CCCN(CC(C)(C)O)C(=O)C1=Cc2ccc(-c3ccc(C(=O)N4CCCC4)cc3)cc2N=C(N)C1 [Compound 117, (1E,4E)-2-amino-N-(2-hydroxy-2-methylpropyl)-N-propyl-8-(4-(pyrrolidine-1-carbonyl)phenyl)-3H-benzo[b]azepine-4-carboxamide]
0.1 to 1 | 1 to 10 | CCCN(CCOC)C(=O)C1=Cc2ccc(-c3ccc(C(=O)N4CCCC4)cc3)cc2N=C(N)C1 [Compound 119, (1E,4E)-2-amino-N-(2-methoxyethyl)-N-propyl-8-(4-(pyrrolidine-1-carbonyl)phenyl)-3H-benzo[b]azepine-4-carboxamide]
0.1 to 1 | 1 to 10 | CCCN(CCC)C(=O)C1=Cc2ccc(-c3ccc(C(=O)N(CC)CC)cc3)cc2N=C(N)C1 [Compound 125, (1E,4E)-2-amino-8-(4-(diethylcarbamoyl)phenyl)-N,N-dipropyl-3H-benzo[b]azepine-4-carboxamide]
0.1 to 1 | 1 to 10 | CCCN(CCC)C(=O)C1=Cc2ccc(-c3ccc(C(=O)N4CCCCC4)cc3)cc2N=C(N)C1 [Compound 126, (1E,4E)-2-amino-8-(4-(piperidine-1-carbonyl)phenyl)-N,N-dipropyl-3H-benzo[b]azepine-4-carboxamide]
0.001 to 0.1 | 1 to 10 | CCCN(CCC)C(=O)C1=Cc2ccc(-c3ccc(C(=O)N4CC[C@H](O)C4)cc3)cc2N=C(N)C1 [Compound 128, (1E,4E)-2-amino-8-(4-((S)-3-hydroxypyrrolidine-1-carbonyl)phenyl)-N,N-dipropyl-3H-benzo[b]azepine-4-carboxamide]
0.001 to 0.1 | 1 to 10 | CCCN(CCC)C(=O)C1=Cc2ccc(-c3cccnc3)cc2N=C(N)C1 [Compound 133, (1E,4E)-2-amino-N,N-dipropyl-8-(pyridin-3-yl)-3H-benzo[b]azepine-4-carboxamide]
0.1 to 1 | 1 to 10 | CCCN(CCC)C(=O)C1=Cc2ccc(-c3ccncc3)cc2N=C(N)C1 [Compound 134, (1E,4E)-2-amino-N,N-dipropyl-8-(pyridin-4-yl)-3H-benzo[b]azepine-4-carboxamide]
0.001 to 0.1 | 1 to 10 | CCCN(CCC)C(=O)C1=Cc2ccc(-c3cccc(C#N)c3)cc2N=C(N)C1 [Compound 136, (1E,4E)-2-amino-8-(3-cyanophenyl)-N,N-dipropyl-3H-benzo[b]azepine-4-carboxamide]
0.001 to 0.1 | 10 to 100 | CCCN(CCC)C(=O)C1=Cc2ccc(-c3ccc(C#N)cc3)cc2N=C(N)C1 [Compound 137, (1E,4E)-2-amino-8-(4-cyanophenyl)-N,N-dipropyl-3H-benzo[b]azepine-4-carboxamide]
0.001 to 0.1 | 1 to 10 | CCCN(CCC)C(=O)C1=Cc2ccc(-c3cccc(C(=O)N(C)C)c3)cc2N=C(N)C1 [Compound 138, (1E,4E)-2-amino-8-(3-(dimethylcarbamoyl)phenyl)-N,N-dipropyl-3H-benzo[b]azepine-4-carboxamide]
0.1 to 1 | 1 to 10 | CCCN(CCC)C(=O)C1=Cc2ccc(-c3ccc(C(=O)OCC)cc3)cc2N=C(N)C1 [Compound 139, ethyl 4-((1E,4E)-2-amino-4-(dipropylcarbamoyl)-3H-benzo[b]azepin-8-yl)benzoate]
0.001 to 0.1 | 1 to 10 | CCOC(=O)C1=Cc2ccc(-c3cccnc3)cc2N=C(N)C1 [Compound 142, (1E,4E)-ethyl 2-amino-8-(pyridin-3-yl)-3H-benzo[b]azepine-4-carboxylate]
0.001 to 0.1 | 1 to 10 | CCOC(=O)C1=Cc2ccc(-c3cncnc3)cc2N=C(N)C1 [Compound 144, (1E,4E)-ethyl 2-amino-8-(pyrimidin-5-yl)-3H-benzo[b]azepine-4-carboxylate]
0.1 to 1 | 1 to 10 | CCOC(=O)C1=Cc2ccc(-c3cccc(C(=O)N(C)C)c3)cc2N=C(N)C1 [Compound 147, (1E,4E)-ethyl 2-amino-8-(3-(dimethylcarbamoyl)phenyl)-3H-benzo[b]azepine-4-carboxylate]
0.1 to 1 | 1 to 10 | CCCN(Cc1ccccc1O)C(=O)C1=Cc2ccc(-c3ccc(C(=O)N4CCCC4)cc3)cc2N=C(N)C1 [Compound 174, (1E,4E)-2-amino-N-(2-hydroxybenzyl)-N-propyl-8-(4-(pyrrolidine-1-carbonyl)phenyl)-3H-benzo[b]azepine-4-carboxamide hydrochloride]
